Positions of bridges follow the written chain, without caps; N, C: chain ends. No end group written: not given here.

Here are results for nine substances from patent US8470333B2, “Chimeric peptides comprising HER-2 B-cell epitopes and T-helper epitopes” (The Ohio State University Research Foundation, priority 2005, dated 2013).

Assay [1] has as its system NT2.5 tumor cell line. Briefly: NT2.5 tumor challenge in immunized FVB/n mice. Type of assay: in vivo, mouse. The conditions noted are these: for doubling time: NT2.5 tumor in vaccinated FVB/N mice; for mean tumor volumes at day 30: FVB/n mice, 5×10^6 NT2.5 cells s.c. two weeks after final immunization, data not shown. The text has this: (§1) The human EGFR disulfide pairings have been defined. Based on the high homology between EGFR and HER-2, the 628-647 epitope to 626-649 to incorporate two disulfide bonds between Cys-626 and Cys-634, and Cys-630 and Cys-642. Differential side chain protection and a specialized deprotection and oxidation successfully generated the cyclized product with a desired secondary structural characteristics as determined by CD measurements. […] Cyclized antibodies elicited twice the level of specific lysis compared to non-cyclized antibodies in an ADCC assay (11 and 5.6% respectively). To investigate the in vivo effect of these peptide vaccines, inbred FVB/N mice were immunized with the constructs. Both constructs were immunogenic in these mice with the cyclized construct generating higher titers. These mice were then challenged with the NT2.5 tumor cell line which has an FVB/N background.
To better understand the potential clinical benefit associated with introducing conformational constraints into B-cell epitope vaccines, both FVB/n and neu-N transgenic mice were challenged with the tumor cell line NT2.5 derived from a spontaneous mammary tumor isolated from a neu-N transgenic mouse. As a consequence of neu over-expression these mice develop spontaneous mammary adenocarcinomas in a manner similar to that observed in human breast cancer patients, and are therefore a suitable model for human breast cancer studies. […] (lower abdomen) two weeks after final immunization. Tumor measurements were taken twice weekly until day 55. Tumor volumes were calculated by the formula (long measurement×short measurement^2)/2. Note that after day 30 the tumors in FVB/n mice begin to regress, indicative of rejection of the tumor. With subsequent tumor studies using FVB/n mice, tumors were measured to day 30.

Assay [2] deals with FVB/n mice. Briefly: Immunogenicity in FVB/n mice, antibody titers by direct ELISA. Type of assay: in vivo, mouse. As to the method:
Groups of four to ten FVB/n mice were immunized with linear (NC) or disulfide-bonded (SS) peptide constructs (A) MVF563-598, (B) MVF585-598, (C) MVF597-626, or the linear peptide (D) MVF613-626. Each mouse is represented as an individual bar. Note that the scale in A is different then B-D;
Direct ELISAs were performed on sera from mice immunized with the cyclized (CYC) and linear (NC) constructs to determine differences in immunogenicity. Antibody titers against the corresponding immunogen were defined as the reciprocal of the highest dilution with absorbance ≧0.2. Each bar represents an individual mouse. Designation on the x-axis represents time at which sera was sampled, e.g. 1y+3 corresponds to serum collected three weeks after the first immunization. Neu-N mice have an FVB/n background and express normal rat neu proto-oncogene under control of a mammary-specific promoter. These mice show tolerance to neu relative to non-transgenic mice (Cancer Research 60, 3569).
Direct ELISA. U-bottom polyvinyl chloride plastic assay plates were coated with 100 μl of antigen at 2 μg/ml in PBS overnight at 4° C. Nonspecific binding sites were blocked for 1 hour with 200 μl PBS-1% BSA and plates were washed with PBT (phosphate-buffered saline containing 0.05% Tween 20 and 1% horse serum). Rabbit antiserum 1/500 or mouse antiserum 1/50 in PBT was added to antigen coated plates, serially diluted 1:2 in PBT, and incubated 2 hr at room temperature. After washing the plates, 50 μl of 1/500 goat anti-rabbit or goat anti-mouse IgG conjugated to horseradish peroxidase (Pierce Chemical Co.) was added to each well. Excess antibody conjugate was removed, and bound antibody was detected using 50 μl of 0.15% H2O2 in 24 mM citric acid, 5 mM sodium phosphate buffer, pH 5.2, with 0.5 mg/ml […] as the chromophore. Color development was allowed to proceed for 10 min and the reaction was stopped with 25 μl of 1% sodium dodecylsulfate. Absorbance was determined at 410 nm using a Dynatech MR700ELISA reader. Results are expressed as the mean absorbance of duplicate wells after subtraction of background.
The immunogenicity of the 4 constructs listed in Table 1 was determined using both the disulfide-bonded and linear constructs by immunizing groups of FVB/n mice (n=4-9) 6-8 weeks old. […] Three mice that received the cyclized form of 597-626 had titers above 120,000, while no mouse that received the linear form had titers above 120,000.
Background: An ELISA detects its analyte on a solid surface through an enzyme-linked reagent.

The test system of assay [3] is trastuzumab. Kind of assay: ELISA binding of trastuzumab to peptides. The conditions noted are these: FIG. 4. As to the method: The peptide sequences are given on the x-axis. MVF316-339 is an Her-2 irrelevant control peptide;
Microtiter wells were coated overnight with 2 μg/ml of various peptides and then blocked with 1% BSA for one hour. […] Values shown are the mean of duplicate samples. SEM are indicated by error bars.

The target of assay [4] is T1, HER-2 protein (Homo sapiens, UniProt P04626).
T1 construct: endogenous in cells; host or cells: SKBR3 or MCF-7 according to the general method
Kind of assay: Flow cytometry binding of anti-peptide antibodies to HER-2 protein (Example 1). In kind it is cell-based. The conditions noted are these: antibodies against the epitope; flow cytometry binding to HER-2 protein. As to the method:
Indirect Binding Assay. SKBR3 cells or MCF-7 cells were plated at 5,000 cells/well in V-bottom plates (Linbro, McLean Va.). The cells were incubated with various concentrations of antibodies. After being washed with Hank's Balanced Salts Solution (HBSS) the cells were incubated for one hour with fluorescein isothiocyanate (FITC)-conjugated goat anti-rabbit or goat anti-mouse antibody and fixed with formalin. A mouse monoclonal Ab (Oncogene Science, Cambridge, Mass.) was used as the positive control and an anti-CD3 Ab as the negative control. The cells were analyzed by a Coulter ELITE flow cytometer (Coulter, Hialeah, Fla.), which has an argon laser for excitation at 488 nm, and a 525 run band pass filter for FITC fluorescence 5.0×10^3 cells were counted for each sample and final processing was performed. Debris, cell clusters and dead cells were gated out by light scatted assessment before single parameter histograms were drawn.
The human EGFR disulfide pairings have been defined. Based on the high homology between EGFR and HER-2, the 628-647 epitope to 626-649 to incorporate two disulfide bonds between Cys-626 and Cys-634, and Cys-630 and Cys-642. Differential side chain protection and a specialized deprotection and oxidation successfully generated the cyclized product with a desired secondary structural characteristics as determined by CD measurements. […]
A general note: Flow cytometry measures light scatter and fluorescence of single cells or particles in a stream.

For assay [5], the system named is cells overexpressing HER-2. Briefly: Anchorage-independent growth assay. Type of assay: cell-based. The conditions noted are these: antibodies against the epitope.
Assay [6] has as its system effector human PBMCs. Briefly: IFN-γ release in the presence of effector human PBMCs. Type of assay: cell-based. The conditions noted are these: antibodies against the construct.
Assay [7] is described as follows: ADCC assay (Example 1). Type of assay: cell-based. The conditions noted are these: antibodies against the epitope.
From the text: as §1

In assay [8] the test system is BT-474 human breast cancer cells (HER-2high). Briefly: Flow cytometry of peptide antibodies with BT474 cells. In kind it is cell-based. As to the method:
Flow cytometry was used to assess whether antibodies from FVB/n mice induced by various constructs recognize native HER-2. BT-474 human breast cancer cells (HER-2high) were treated with 10 μg/mL of normal mouse Ig (negative control), mouse monoclonal Ab-2 (positive control), or peptide antibodies raised in FVB/n mice.
(§2) The reactivity of purified antibodies from immunized mouse sera was tested with (A) BT474 and (B) SKBR-3 breast cancer cell lines using flow cytometric analysis. Ab binding was detected with goat-anti mouse FITC-conjugated abs. The x-axis represents fluorescent intensity, and the y-axis represents relative cell number. Each histogram contains an overlay of mouse pre IgG, peptide antibodies, and AB2, a mouse mAb that binds HER-2.
Indirect Binding Assay. SKBR3 cells or MCF-7 cells were plated at 5,000 cells/well in V-bottom plates (Linbro, McLean Va.). The cells were incubated with various concentrations of antibodies. […] The cells were analyzed by a Coulter ELITE flow cytometer (Coulter, Hialeah, Fla.), which has an argon laser for excitation at 488 nm, and a 525 run band pass filter for FITC fluorescence 5.0×10^3 cells were counted for each sample and final processing was performed. […]

The subject of assay [9] is SKBR-3 breast cancer cell line. Briefly: Flow cytometry of peptide antibodies with SKBR-3 cells. As to conditions: purified antibodies from immunized mouse sera, FIG. 13. Type of assay: cell-based, human. The procedure: as §2
Cell Culture. Stock cultures were maintained at 37° C. in a 5% CO2 incubator. All cell culture media, FCS, and supplements were purchased from GEBCO (Grand Island, N.Y.). The human breast adenocarcinoma cell lines SKBR-3 and MCF-7 were obtained from the American Type Culture Collection and was subcultured in McCoy's 5A or DMEM supplemented with 10% FCS and L-glutainine. Cav-1 was maintained in RPMI 1640 with 10% FCS and L-glutamine. […] SKBR3 is a breast tumor cell line which overexpresses the HER-2 protein while MCF-7 expresses the normal concentration of protein.
Indirect Binding Assay. SKBR3 cells or MCF-7 cells were plated at 5,000 cells/well in V-bottom plates (Linbro, McLean Va.). […] The cells were analyzed by a Coulter ELITE flow cytometer (Coulter, Hialeah, Fla.), which has an argon laser for excitation at 488 nm, and a 525 run band pass filter for FITC fluorescence 5.0×10^3 cells were counted for each sample and final processing was performed. […]

The mark [10] stands for this setting: by day 33, compared to both unimmunized and MVF immunized mice.

In turn, “KLLSLIKGVIVHRLEGVE [MVF control peptide, reference compound]” showed a doubling time in [1] of 4.48 days.
Regarding “KLLSLIKGVIVHRLEGVE-GPSL-CHPECQPQNGSVTCFGPEADQCVACAHYKDPPFCVA (KLLSLIKGVIVHRLEGVEGPSLCHPECQPQNGSVTCFGPEADQCVACAHYKDPPFCVA; disulfide (positions not given here)) [MVF 563 SS]”, the immunogenicity entry in assay [2] (FVB/n mice, Example 3, FIG. 3) is listed as “highly immunogenic”. Also, the titers result in [2] (two mice of the group, three weeks after the third immunization) was “above 250,000”. Also, the “mean tumor volumes at day 30” value in [1] (listed as 563-598 SS) amounted to 173.7292 mm^3. In addition, in assay [3], the binding to trastuzumab result is listed as “Maximum binding”.
As to “KLLSLIKGVIVHRLEGVE-GPSL-CHPECQPQNGSVTCFGPEADQCVACAHYKDPPFCVA [563-598 NC]”, the “mean tumor volumes at day 30” value in assay [1] came to 166.517 mm^3.
In the case of “KLLSLIKGVIVHRLEGVE-GPSL-CPINCTHSCVDLDDKGCPAEQRAS [626-649 cyclized]”, in assay [2] (inbred FVB/N mice, Example 1), the immunogenicity entry is given as “higher titers”. For the same substance, the mean log fluorescence in assay [4] amounted to 2.29. For the same substance, the “inhibition (reduction of growth)” value in assay [5] was determined as 31%. In assay [6], the IFN-γ release result was “able to elicit IFN-γ release” and the “higher levels of IFN-γ compared to the linear antibodies” value is given as 25%. In addition, the specific lysis in [7] is 11%. The doubling time in assay [1] came to 6.63 days. Moreover, the tumor volume entry in assay [1] (immunized FVB/N mice challenged with NT2.5, compared to linear and control MVF immunized mice) is “reduction in tumor volume”.
Regarding “KLLSLIKGVIVHRLEGVE-GPSL-CPINCTHSCVDLDDKGCPAEQRAS [626-649 linear]”, the immunogenicity result in [2] (inbred FVB/N mice, Example 1) is “immunogenic”. This substance came in with a mean log fluorescence in assay [4] of 1.65. Also, the “inhibition (reduction of growth)” value in assay [5] is on record as 58%. The IFN-γ release result in assay [6] is reported as “able to elicit IFN-γ release”. The substance also registered a specific lysis in [7] of 5.6%. Also, the doubling time in assay [1] came to 4.31 days.
As to “KLLSLIKGVIVHRLEGVE-GPSL-IWKFPDEEGACQPL (KLLSLIKGVIVHRLEGVEGPSLIWKFPDEEGACQPL) [MVF 613]”, in [2] (FVB/n mice, Example 3, FIG. 3), the immunogenicity result was “highly immunogenic”. In addition, in assay [1] (setting [10]), the tumor volume result is listed as “reduction in tumor volume”. Further, in assay [8] (FVB/n purified antibodies, FIG. 5), the “shift in flow cytometry” value was “shifted relative to normal mouse antibodies”. Moreover, the “recognition of HER-2” value is given as “recognize HER-2” in [8] (purified antibodies from immunized mouse sera, FIG. 13) and “recognize HER-2” in assay [9].
“KLLSLIKGVIVHRLEGVE-GPSL-LHCPALVTYNTDTFESMPNPEGRYTFGASCV (KLLSLIKGVIVHRLEGVEGPSLLHCPALVTYNTDTFESMPNPEGRYTFGASCV; also: cyclized) [MVF 266 CYC]”: the “tumor development and growth” value in assay [1] (wild-type FVB/n mice, 3×106 NT2.5 cells s.c., 24 days, compared to MVF immunized mice only) is “delayed tumor development (A) and growth (B)”.
For the substance “KLLSLIKGVIVHRLEGVE-GPSL-VACAHYKDPPFCVA (KLLSLIKGVIVHRLEGVEGPSLVACAHYKDPPFCVA; disulfide 25-34 (inferred)) [MVF 585 SS]”, in assay [1] (setting [10]), the tumor volume result was “reduction in tumor volume”.
As to “KLLSLIKGVIVHRLEGVE-GPSL-VARCPSGVKPDLSYMPIWKFPDEEGACQPL [597-626 linear]”, in assay [2] (no mouse of the group above this value), the titers is ≤ 120,000.
